The term IC50 denotes the concentration needed to halve the response being measured.

Our source for the IC50 values is PubChem BioAssay AID1863 (Southern Research Specialized Biocontainment Screening …, 2009).

The subject of the assay is S. Typhimurium PhoP-regulated promoter GFP reporter, 4 h. Description: inhibitors of PhoP regulon expression, primary screen, Salmonella Typhimurium, GFP reporter (AID 1863).
`O=C(N/N=C/c1coc2ccc(Cl)cc2c1=O)c1cc(O)cc(O)c1`: the IC50 was 69.1 µM. Regarding `CCCCCCCCCCCCCCCC[N+](C)(C)CCN(Cc1ccc(OC)cc1)c1ncccn1`, the IC50 is 30.2 µM. As for `CCn1nc(C(=O)O)c(=O)c2cc3c(cc21)OCO3`, the figure is 27.9 µM; as for `CN(C)C1C(=O)C(C(N)=O)=C(O)C2(O)C(=O)C3=C(O)c4c(O)cccc4C(C)(O)C3C(O)C12` (stereo unspecified), 1.7 µM. As to `C#CCOCCOCCOCCNc1nc(N2CCN(C(=O)CCCCCCCCCCNC(=O)[C@H]([C@@H](C)CC)n3cc(CCCCN=C(N)N)nn3)CC2)nc(N2CCN(C(=O)CCCCCCCCCCNC(=O)[C@H]([C@@H](C)CC)n3cc(CCCCN=C(N)N)nn3)CC2)n1`, the IC50 was 78.7 µM.

With `CCOC(=O)N1CCN(C(c2cccnc2)c2ccc3cccnc3c2O)CC1` (stereo unspecified), the IC50 was 122 µM. Then `CC1CCC(C(C)C)C(OC(=O)Cn2c(COc3ccccc3)[n+](C)c3ccccc32)C1` (stereo unspecified), with 72.3 µM. As for `CC(=O)N1CCN(c2cc3c(cc2F)c(=O)c(C(=O)O)cn3C2CC2)CC1`, the figure is 16.3 µM.

`O=C(N/N=C/c1cc2c3c(c1O)CCCN3CCC2)c1ccccc1O`: the IC50 is 138 µM. As for `CCn1cc(C(=O)O)c(=O)c2cc(F)c(N3CCN(C)CC3)cc21`, the figure is 1 µM. `Oc1c(I)cc(Cl)c2cccnc12`: the IC50 was 17.9 µM. As to `COc1nsnc1NS(=O)(=O)c1ccc(NC(=S)NC(=O)c2cccnc2)cc1`, the IC50 is 116 µM. For `c1ccc2c(c1)Sc1ccccc1N2CC1CN2CCC1CC2` (stereo unspecified), the IC50 was 133 µM. As for `O=[N+]([O-])c1cc(O)c2ncccc2c1`, the figure is 27.9 µM; as for `O=C(CSc1nc2ccccc2s1)N/N=C/c1cc([N+](=O)[O-])ccc1O`, 109 µM; as for `O=CN/N=C/c1c(O)ccc2ccccc12`, 71.9 µM. As for `COC1C(OC(=O)c2ccc(C)[nH]2)C(O)C(Oc2ccc3c(O)c(NC(=O)c4ccc(O)c(CC=C(C)C)c4)c(=O)oc3c2Cl)OC1(C)C` (stereo unspecified), the figure is 11.8 µM; as for `Nc1nc(F)nc2c1ncn2[C@@H]1O[C@H](CO)[C@@H](O)[C@H]1O`, 27.8 µM. As for `COc1c(N2CCNC(C)C2)c(F)cc2c(=O)c(C(=O)O)cn(C3CC3)c12` (stereo unspecified), the figure is 0.58 µM; as for `Oc1ccc(/C=N/Nc2nccnc2Cl)c(O)c1`, 64.8 µM; as for `C=CCNc1ncnc2c1[nH]c1ccc(Cl)cc12`, 137 µM. As to `NC1CCN(c2nc3c(cc2F)c(=O)c(C(=O)O)cn3-c2ccc(F)cc2F)C1` (stereo unspecified), the IC50 was 0.49 µM.

Turning to `CNC[C@H](CC1CCCCC1)NC[C@H](Cc1ccccc1)NCCC12CC3CC(CC(C3)C1)C2`, the IC50 is 18.1 µM. Then `N=c1n(Cc2ccccc2)c2ccccc2n1CC(O)COc1ccc(Cl)cc1Cl` (stereo unspecified), with 35.1 µM; and `CCCCCCCCCCCCCCCC[n+]1cccc(C(=O)N(CC)CC)c1`, with 25.3 µM; and `Clc1ccc(CN2CCC(c3nc4ccc(Cl)cc4[nH]3)CC2)cc1`, with 79.6 µM. Consider `CCCCCCCCCCOC(=O)Cn1c(COc2ccccc2OC)[n+](C)c2ccccc21`, for which the IC50 is 28.6 µM. Then `COc1ccc(/C=N/Nc2cc(C)nc3ccccc23)cc1`, with 38.5 µM. As for `CS(=O)(=O)c1ccc([C@@H](O)[C@@H](CF)NC(=O)C(Cl)Cl)cc1`, the figure is 9.86 µM. Then `C[C@H]1c2cccc(O)c2C(O)=C2C(=O)[C@]3(O)C(O)=C(C(N)=O)C(=O)[C@@H](N(C)C)[C@@H]3[C@@H](O)[C@@H]21`, with 6.25 µM; and `O=C(c1cccs1)c1no[n+]([O-])c1C(=O)c1cccs1`, with 33.7 µM; and `NC1=NC[C@@H](Cc2ccc(O)cc2)N1CCCCC1CCCCC1`, with 31.2 µM. In the case of `CC(=O)c1c(C)n([O-])c2ccccc2[n+]1=O`, the IC50 was 119 µM.

Consider `CC(C)NC1=C(Cl)C(=O)c2ccccc2C1=O`, for which the IC50 is 75.5 µM. As for `O=C(N/N=C/c1cccc([N+](=O)[O-])c1O)c1cccs1`, the figure is 24.7 µM; as for `COc1ccc(OCC(O)CNc2ccc(Br)cc2)cc1` (stereo unspecified), 37.2 µM.
